Measured values taken from patent publication US10899822B2, “Compositions comprising D-amino acid peptides and methods of production and use thereof for inhibiting autoantibodies” (The Board of Regents of the University of Oklahoma, priority 2013, dated 2021).
“Also recorded” adds a separate entry of the source. Marks after values point to notes of the source that are not given here. One block for each compound: values may come before it. Square brackets hold non-standard residues; d marks the D form. Ends that are not written are not given here. Peptide text beside a SMILES is read from it.

Experiments:
[1] = In vitro stability in human serum at 37° C., HPLC; format: in vitro ADME
[2] = In vitro stability in synthetic gastric fluid (SGF, pepsin+HCL, pH 1.2) at 37° C., HPLC; format: in vitro ADME; conditions: pH 1.2, 37° C.
Protocol: FIG. 13 graphically illustrates an in vitro stability analysis of the native and RID peptides in synthetic gastric fluid (SGF, pepsin+HCL, pH 1.2) at 37° C., as measured by HPLC. This Figure indicates the rate of proteolysis of the AT1R-ECL2 L-amino acid peptide and the AT1R-ECL2 RID peptide under these conditions.
In FIG. 13, the AT1R-ECL2 L-amino acid peptide and the AT1R-ECL2 RID peptide were each separately incubated in artificial gastric juice (SGF, pepsin+HCL, pH 1.2) at 37° C., and proteolysis of the peptides was measured by HPLC.

β1AR-AAb [3] = test: Effective refractory period (ERP) in β1AR-immunized rabbits; format: in vivo, rabbit
Excerpt: FIG. 8 contains a flow chart depicting the protocol of the procedures performed in rabbits in a study to determine the effective refractory period (ERP) in atrial cells in rabbit-models with pre-immune, post-immune (β1AR-immunization), and post-immune plus β1AR-ECL2 RID peptide administration. The ERP inversely is one parameter of the susceptibility of the cardiac cells to induction of tachyarrhythmias.
(§1) The RID peptide was utilized in a study measuring the effective refractory period (ERP) in five New Zealand white rabbits. The procedures performed are outlined in the flow chart of FIG. 8. The ERP was measured during a pre-immune state and following immunization with β1AR ECL2 peptide to generate autoantibodies thereto, as described previously (Li et al. Am J Physiol Heart Circ Physiol. (2014) 306:H422-428). This was followed by administration of T4 (40 μg/kg), and an additive effect was observed on induced atrial tachyarrhythmias with the appearance of AF in a significant percentage of the T4 treated animals. […] In addition, the ERP in the rabbits was measured following administration of the β1AR-ECL2 RID peptide 90 minutes after T4.
FIG. 10 illustrates the mean ERP for an atrial catheter lead.

β1AR-AAb [4] = test: Heart rate and sustained arrhythmias in β1AR-AAb + T4 excess animals; format: in vivo, rabbit
Protocol: as §1

β1AR-AAb [5] = test: cAMP production in β1AR-CHO cells stimulated by post-immune sera; format: cell-based, rabbit
[6] = rabbit, in vivo
[7] = test system: AT1R activating autoantibodies; test: Isolated rat cremaster artery contractility induced by serum of AT1R 2nd ECL peptide immunized rabbits; set-up: species or system rabbit; conditions: with ARB losartan
Excerpt: FIG. 4, Panel A illustrates the dose related contractile effect of serum from an AT1R 2nd ECL peptide immunized rabbit on an isolated rat cremaster artery. The in vitro contractile changes were expressed as % change (decrease) in diameter with the increasing dosage concentration (dilution). These effects are blocked by the selective angiotensin II receptor blocker (ARB) losartan.
There was a significant increase of in vitro cremaster contractility (p<0.01) in the post-immune state compared to the pre-immune values.
FIG. 5 illustrates the effect of in vitro incubation of the RID peptide with serum containing AT1R activating autoantibodies (rabbit) on cremaster artery contractility. […] The same response was observed when the serum was pre-incubated with the L-amino acid target peptide (FIG. 5, Panel B).
Data provided herein were obtained with immunized rabbit serum containing autoantibodies that will stimulate AT1R receptors transfected into CHO cells. […] A bioassay for Angiotensin II-like activity using an isolated perfused cremaster artery in vitro has also been developed.

AT1R autoantibodies = test: Binding of iodinated RID peptide to autoantibodies; conditions: iodine atom in the molecular structure
Protocol: While therapeutic methods of using the RID peptides have been envisioned above, the scope of the presently disclosed inventive concepts also includes diagnostic uses of the RID peptides as well. The studies shown in FIGS. 12 and 13 were conducted at high concentrations (>250 μg/ml), and these concentrations are too high for study of absorption and use as part of a direct assay of serum binding to autoantibodies.

peptide remaining intact ([1]; 24 hours (data not shown)): 80%
integrity at two hours [1]: resistance
integrity at two hours ([1]; listed as AT2R-ECL2 RID peptide): remained intact
integrity for four hours ([2]; four hours): remained intact
remaining at 6 h ([2]; synthetic gastric fluid (SGF), six hours, read-out: peptide remaining): 60%
Compound: C[C@@H](NC(=O)[C@@H](Cc1ccccc1)NC(=O)[C@@H](Cc1c[nH]cn1)NC(=O)[C@@H](Cc1ccc(O)cc1)NC(=O)[C@@H](CCC(=O)O)NC(=O)[C@@H](CO)NC(=O)[C@H](N)CCC(N)=O)C(=O)O [AT1R-ECL2 RID peptide, qseyhfa] (H-[dQ][dS][dE][dY][dH][dF][dA]-OH; N-terminus and C-terminus assumed)

Compound: dcckpdnycr [β1AR-ECL2 RID peptide]
effect on ERP (msec), right atrial lead (β1AR-AAb [3]; post-immune + RID peptide IV, over 90 minutes): dramatic rise in ERP; also recorded: reverses the shortening of the ERP
effect on ERP (β1AR-AAb [3]; post-immune + T4 + RID peptide, 90 minutes after T4): reversed the β1AR-AAb effects but not the effect caused by T4
#sustained arrhythmias/#induction attempts (β1AR-AAb [4]; Post-immune + T4 + β1AR-RID): 6/20*^++
Heart rate (β1AR-AAb [4]; Post-immune + T4 + β1AR-RID): 241 ± 35**^##+ beats/min
Sustained AF (β1AR-AAb [4]; Post-immune + T4 + β1AR-RID): 0/20
Sustained AFL (β1AR-AAb [4]; Post-immune + T4 + β1AR-RID): 0/20
Sustained AT (β1AR-AAb [4]; Post-immune + T4 + β1AR-RID): 1/20
Sustained JT (β1AR-AAb [4]; Post-immune + T4 + β1AR-RID): 2/20
Sustained ST (β1AR-AAb [4]; Post-immune + T4 + β1AR-RID): 3/20^+
Sustained VT (β1AR-AAb [4]; Post-immune + T4 + β1AR-RID): 0/20
sera-induced β1AR activation of cAMP production in β1AR-transfected cells (β1AR-AAb [5]; sera pre-incubated with RID peptide, P<0.01): effectively blocked
ability of post-immune sera to stimulate cAMP in β1AR-CHO cells (β1AR-AAb [5]; sera taken 90 after IV injection of 1 mg/Kg BW): marked reduction of the ability to stimulate cAMP
anti-RID antibodies by ELISA (immunogenicity) [6]: failed to demonstrate anti-RID antibodies

Compound: CCCCc1nc(Cl)c(CO)n1Cc1ccc(-c2ccccc2-c2nn[nH]n2)cc1 [losartan]
contractile effect of immunized rabbit serum on isolated rat cremaster artery (% decrease in diameter) [7]: blocked

rate of proteolysis compared with the RID peptide [2]: proteolyzed at a much faster rate
Compound: C[C@H](N)C(=O)N[C@@H](Cc1ccccc1)C(=O)N[C@@H](Cc1c[nH]cn1)C(=O)N[C@@H](Cc1ccc(O)cc1)C(=O)N[C@@H](CCC(=O)O)C(=O)N[C@@H](CO)C(=O)N[C@@H](CCC(N)=O)C(=O)O [AT1R-ECL2 L-amino acid peptide, AFHYESQ, reference compound] (H-AFHYESQ-OH; N-terminus and C-terminus assumed)

Compound: N[C@@H](Cc1cc(I)c(Oc2cc(I)c(O)c(I)c2)c(I)c1)C(=O)O [T4, thyroxine, reference compound]
effect on ERP (β1AR-AAb [3]; post-immune + T4 (40 μg/kg), P<0.01): additive
#sustained arrhythmias/#induction attempts (β1AR-AAb [4]; Post-immune + T4): 20/20**^#
Heart rate (β1AR-AAb [4]; Post-immune + T4): 280 ± 56 beats/min
Sustained AF (β1AR-AAb [4]; Post-immune + T4): 2/20
Sustained AFL (β1AR-AAb [4]; Post-immune + T4): 0/20
Sustained AT (β1AR-AAb [4]; Post-immune + T4): 2/20
Sustained JT (β1AR-AAb [4]; Post-immune + T4): 2/20
Sustained ST (β1AR-AAb [4]; Post-immune + T4): 11/20**
Sustained VT (β1AR-AAb [4]; Post-immune + T4): 3/20

Compound: AT1R-ECL2 RID peptide has been iodinated: AT1R-ECL2 RID peptide directly iodinated; iodine atom in the structure blocked binding ([dQ][dS][dE][dY][dH][dF][dA]; also: directly iodinated, place not given here)
binding to autoantibodies (AT1R autoantibodies): blocked binding
